These results are taken from US8394952B2 (Vertex Pharmaceuticals Incorporated, priority 2006, dated 2013).

Molecules are shown by their SMILES. Bounds are passed on as bounds.

Plk1, sequence (P53350 20-338): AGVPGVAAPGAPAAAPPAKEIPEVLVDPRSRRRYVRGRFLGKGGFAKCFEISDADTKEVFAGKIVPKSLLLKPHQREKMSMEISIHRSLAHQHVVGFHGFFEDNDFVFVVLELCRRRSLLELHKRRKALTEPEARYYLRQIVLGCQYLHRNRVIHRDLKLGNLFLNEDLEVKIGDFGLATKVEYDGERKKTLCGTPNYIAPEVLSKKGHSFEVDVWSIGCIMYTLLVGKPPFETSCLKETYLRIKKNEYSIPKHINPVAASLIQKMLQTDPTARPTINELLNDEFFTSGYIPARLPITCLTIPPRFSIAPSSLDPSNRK

The experiment concerns the target Plk1 (Homo sapiens, UniProt P53350). The experiment can be described thus: biochemical.
As a reminder, the Ki is the equilibrium dissociation constant of an inhibitor or competing ligand from its target. `CNC(=O)c1ccc(Nc2ncc3c(n2)N(C2CCCC2)CC(C)(C)C(=O)N3C)cc1` [Compound I-80, 4-(9-cyclopentyl-6,7,8,9-tetrahydro-5,7,7-trimethyl-6-oxo-5H-pyrimido[4,5-b][1,4]diazepin-2-ylamino)-N-methylbenzamide] returned an inhibition constant Ki of under 10 nM. The compound `CN1C(=O)C(C)(C)CN(C2CCCC2)c2nc(Nc3cccc4[nH]ncc34)ncc21` [Compound I-81, 2-(1H-indazol-4-ylamino)-9-cyclopentyl-8,9-dihydro-5,7,7-trimethyl-5H-pyrimido[4,5-b][1,4]diazepin-6(7H)-one] came in with a Ki of 10 to 100 nM. As for `CN1CCN(c2ccc(Nc3ncc4c(n3)N(C3CCCC3)CC(C)(C)C(=O)N4C)cc2)CC1` [Compound I-85, 2-(4-(4-methylpiperazin-1-yl)phenylamino)-9-cyclopentyl-8,9-dihydro-5,7,7-trimethyl-5H-pyrimido[4,5-b][1,4]diazepin-6(7H)-one], the figure is under 10 nM.

`CN1C(=O)C(C)(C)CN(C2CCCC2)c2nc(Nc3ccc(CN4CCOCC4)cc3)ncc21` [Compound I-86] came in with an inhibitory constant (Ki) of 10 to 100 nM.

`CN1C(=O)C(C)(C)CN(C2CCCC2)c2nc(Nc3ccc(C(=O)NCCO)cc3)ncc21` [Compound I-87, 4-(9-cyclopentyl-6,7,8,9-tetrahydro-5,7,7-trimethyl-6-oxo-5H-pyrimido[4,5-b][1,4]diazepin-2-ylamino)-N-(2-hydroxyethyl)benzamide] came in with a Ki of under 10 nM. As for `CN1C(=O)C(C)(C)CN(C2CCCC2)c2nc(Nc3cccc4cn[nH]c34)ncc21` [Compound I-89, 2-(1H-indazo-7-ylamino)-9-cyclopentyl-8,9-dihydro-5,7,7-trimethyl-5H-pyrimido[4,5-b][1,4]diazepin-6(7H)-one], the figure is 10 to 100 nM; as for `CN1C(=O)C(C)(C)CN(C2CCCC2)c2nc(Nc3ccccc3)ncc21` [Compound I-90, 9-cyclopentyl-8,9-dihydro-5,7,7-trimethyl-2-(phenylamino)-5H-pyrimido[4,5-b][1,4]diazepin-6(7H)-one], 10 to 100 nM; as for `CN1C(=O)C(C)(C)CN(C2CCCC2)c2nc(Nc3cccc4cn(C)nc34)ncc21` [Compound I-91, 2-(2-methyl-2H-indazol-7-ylamino)-9-cyclopentyl-8,9-dihydro-5,7,7-trimethyl-5H-pyrimido[4,5-b][1,4]diazepin-6(7H)-one], 10 to 100 nM. Under `CN1C(=O)C(C)(C)CN(C2CCCC2)c2nc(Nc3cccn4ncnc34)ncc21` [Compound I-92, 2-([1,2,4]triazolo[1,5-a]pyridin-8-ylamino)-9-cyclopentyl-8,9-dihydro-5,7,7-trimethyl-5H-pyrimido[4,5-b][1,4]diazepin-6(7H)-one] stands 10 to 100 nM.

Take `COc1cc(C(=O)NC2CC2)ccc1Nc1ncc2c(n1)N(C1CCCC1)CC(C)(C)C(=O)N2C` [Compound I-93, 4-(9-cyclopentyl-6,7,8,9-tetrahydro-5,7,7-trimethyl-6-oxo-5H-pyrimido[4,5-b][1,4]diazepin-2-ylamino)-N-cyclopropyl-3-methoxybenzamide]: the Ki was under 10 nM. As for `COc1cc(C(=O)NC2CCC2)ccc1Nc1ncc2c(n1)N(C1CCCC1)CC(C)(C)C(=O)N2C` [Compound I-94, 4-(9-cyclopentyl-6,7,8,9-tetrahydro-5,7,7-trimethyl-6-oxo-5H-pyrimido[4,5-b][1,4]diazepin-2-ylamino)-N-cyclobutyl-3-methoxybenzamide], the figure is under 10 nM.

`COc1cc(C(=O)NC2CCN(C(=O)OC(C)(C)C)CC2)ccc1Nc1ncc2c(n1)N(C1CCCC1)CC(C)(C)C(=O)N2C` [Compound I-95]: the Ki is under 10 nM. In the case of `CNC(=O)c1ccc(Nc2ncc3c(n2)N([C@@H]2CCCN(C)C2)CC(C)(C)C(=O)N3C)c(OC)c1` [Compound I-96, 4-(6,7,8,9-tetrahydro-5,7,7-trimethyl-9-((R)-1-methylpiperidine-3-yl)-6-oxo-5H-pyrimido[4,5-b][1,4]diazepin-2-ylamino)-3-methoxy-N-methylbenzamide], the Ki is under 10 nM. `CNC(=O)c1ccc(Nc2ncc3c(n2)N(C2CCN(C)CC2)CC(C)(C)C(=O)N3C)c(OC)c1` [Compound I-97, 4-(6,7,8,9-tetrahydro-5,7,7-trimethyl-9-((R)-1-methylpiperidine-4-yl)-6-oxo-5H-pyrimido[4,5-b][1,4]diazepin-2-ylamino)-3-methoxy-N-methylbenzamide]: the inhibition constant Ki was in the range of 10 to 100 nM. Under `Cc1cc(O)n(-c2ccc(Nc3ncc4c(n3)N(C3CCCC3)CC(C)(C)C(=O)N4C)cc2)n1` [Compound I-98, 2-(4-(5-hydroxy-3-methyl-1H-pyrazol-1-yl)phenylamino)-9-cyclopentyl-8,9-dihydro-5,7,7-trimethyl-5H-pyrimido[4,5-b][1,4]diazepin-6(7H)-one] stands 10 to 100 nM. With `CN1C(=O)C(C)(C)CN(C2CCCC2)c2nc(Nc3ccc(-c4cc[nH]n4)cc3)ncc21` [Compound I-99, 2-(4-(1H-pyrazol-3-yl)phenylamino)-9-cyclopentyl-8,9-dihydro-5,7,7-trimethyl-5H-pyrimido[4,5-b][1,4]diazepin-6(7H)-one], the Ki is under 10 nM.

As to `COc1cc(C(=O)NC2CCNCC2)ccc1Nc1ncc2c(n1)N(C1CCCC1)CC(C)(C)C(=O)N2C` [Compound I-101], the inhibition constant Ki was under 10 nM. As for `COc1ccccc1Nc1ncc2c(n1)N(C1CCCC1)CC(C)(C)C(=O)N2C` [Compound I-102, 2-(2-methoxyphenylamino)-9-cyclopentyl-8,9-dihydro-5,7,7-trimethyl-5H-pyrimido[4,5-b][1,4]diazepin-6(7H)-one], the figure is 10 to 100 nM. `COC(=O)Nc1ccc(Nc2ncc3c(n2)N(C2CCCC2)CC(C)(C)C(=O)N3C)c(OC)c1` [Compound I-103, Methyl 4-(9-cyclopentyl-5,7,7-trimethyl-6-oxo-6,7,8,9-tetrahydro-5H-pyrimido[4,5-b][1,4]diazepin-2-ylamino)-3-methoxyphenylcarbamate]: the inhibition constant Ki is under 10 nM. As for `COCC(=O)Nc1ccc(Nc2ncc3c(n2)N(C2CCCC2)CC(C)(C)C(=O)N3C)c(OC)c1` [Compound I-104, N-(4-(9-cyclopentyl-5,7,7-trimethyl-6-oxo-6,7,8,9-tetrahydro-5H-pyrimido[4,5-b][1,4]diazepin-2-ylamino)-3-methoxyphenyl)-2-methoxyacetamide], the figure is under 10 nM; as for `COc1cc(C(=O)NCC(F)(F)F)ccc1Nc1ncc2c(n1)N(C1CCCC1)CC(C)(C)C(=O)N2C` [Compound I-105], under 10 nM; as for `CN1C(=O)C(C)(C)CN(C2CCCC2)c2nc(Nc3ccc4[nH]c(=O)[nH]c4c3)ncc21` [Compound I-108, 2-(2,3-dihydro-2-oxo-1H-benzo[d]imidazol-6-ylamino)-9-cyclopentyl-8,9-dihydro-5,7,7-trimethyl-5H-pyrimido[4,5-b][1,4]diazepin-6(7H)-one], under 10 nM. As for `CN1C(=O)C(C)(C)CN(C2CCCC2)c2nc(Nc3ccc4[nH][nH]c(=O)c4c3)ncc21` [Compound I-109, 2-(2,3-dihydro-3-oxo-1H-indazol-5-ylamino)-9-cyclopentyl-8,9-dihydro-5,7,7-trimethyl-5H-pyrimido[4,5-b][1,4]diazepin-6(7H)-one], the figure is 10 to 100 nM. As for `CN1C(=O)C(C)(C)CN(C2CCCC2)c2nc(Nc3ccc4c(cnn4C)c3)ncc21` [Compound I-110, 2-(1-methyl-1H-indazol-5-ylamino)-9-cyclopentyl-8,9-dihydro-5,7,7-trimethyl-5H-pyrimido[4,5-b][1,4]diazepin-6(7H)-one], the figure is 10 to 100 nM.
